According to patent US20030083374A1, “NAALADase inhibitors useful as pharmaceutical compounds and compositions” (priority 1998, published 2003):

Tested on: cortical cell cultures
Test: in vitro assay of NAALADase inhibitors on ischemia in cortical cell cultures
Assay type: cell-based
Conditions: concentration required to cause a 50% reduction in glutamate toxicity following an ischemic insult (potassium cyanide and 2-deoxyglucose)
From the text: Some results are set forth in U.S. Pat. Nos. 5,672,592, 5,795,877, 5,863,536, 5,880,112 and 5,902,817, allowed U.S. patent application Ser. Nos. 08/825,997, 08/833,628, 08/842,360 and 08/899,319 for which the issue fees have been paid, the entire contents of which patents and applications are herein incorporated by reference. Other results are provided below in TABLE III.

In order of rising EC50:
1. O=C(O)CCC(CP(=O)(O)CC(CCC(=O)OCc1ccccc1)C(=O)OCc1ccccc1)C(=O)O (stereo not shown)  0.01 nM
2. O=C(O)CCC(CP(=O)(O)CC(CCC(=O)O)C(=O)O)C(=O)O (stereo not shown)  0.04 nM
3. O=C(O)CCC(CP(=O)(O)CNCc1ccccc1)C(=O)O (stereo not shown)  0.9 nM
4. O=C(O)CCC(CP(=O)(O)C(NCc1ccccc1)c1ccccc1)C(=O)O (stereo not shown)  1 nM
5. O=C(O)CCC(CP(=O)(O)CNc1ccc(F)cc1)C(=O)O (stereo not shown)  3 nM
6. COc1ccc(NCP(=O)(O)CC(CCC(=O)O)C(=O)O)cc1 (stereo not shown)  10 nM
7. Cc1ccc(NCP(=O)(O)CC(CCC(=O)O)C(=O)O)cc1 (stereo not shown)  11 nM
8. O=C(O)CCC(CP(=O)(O)CNc1ccccc1)C(=O)O (stereo not shown)  12 nM
9. O=C(O)CCC(CP(=O)(O)CN1C(=O)c2ccccc2C1=O)C(=O)O (stereo not shown)  13 nM
10. O=C(O)CCC(CCCS)C(=O)O (stereo not shown) [2-(3-sulfanylpropyl)pentanedioic acid]  13 nM
11. O=C(O)CCC(CCSSCCC(CCC(=O)O)C(=O)O)C(=O)O (stereo not shown) [2-[2-[(3,5-dicarboxypentyl)dithio]ethyl]pentanedioic acid]  17 nM
12. O=C(O)CCC(CC(S)c1ccccc1)C(=O)O (stereo not shown) [2-(2-phenyl-2-sulfanylethyl)pentanedioic acid]  29 nM
13. CC(C)(C)c1ccc(NCP(=O)(O)CC(CCC(=O)O)C(=O)O)cc1 (stereo not shown)  35 nM
14. O=C(O)CCC(CCCCS)C(=O)O (stereo not shown) [2-(4-sulfanylbutyl)pentanedioic acid]  36 nM
15. CCC(CS)C(CCC(=O)O)C(=O)O (stereo not shown) [2-(1-ethyl-2-sulfanylethyl)pentanedioic acid]  62 nM
16. CC(CS)CC(CCC(=O)O)C(=O)O (stereo not shown) [2-(3-sulfanyl-2-methylpropyl)pentanedioic acid]  80 nM
17. CC(CS)C(CCC(=O)O)C(=O)O (stereo not shown) [2-(1-methyl-2-sulfanylethyl)pentanedioic acid]  141 nM
18. O=C(O)CCC(CP(=O)(O)CNS(=O)(=O)c1ccccc1)C(=O)O (stereo not shown)  792 nM
19. CCCCC(S)CC(CCC(=O)O)C(=O)O (stereo not shown) [2-(2-sulfanylhexyl)pentanedioic acid]  1000 nM

Tested on: rat MCAO model of stroke
Test: in vivo assay on brain injury following MCAO
Design: species or system Sprague-Dawley rats
Conditions: 30 mg/kg IV bolus + 6 mg/kg/hr IV infusion 4 hours, 120 minutes post-occlusion
Procedure: The control group received Hepes buffered saline.
Four drug treated groups received Compound 1. For each rat, the treatment was initiated at 60 minutes post middle cerebral artery occlusion (MCAO) by an IV bolus injection which was immediately followed by IV infusion for 4 hours at rate of 0.5 ml/hr. Group 1 (n=9) received a dose of 100 mg/kg IV bolus followed by 20 mg/kg/hr IV infusion for 4 hours. Group 2 (n=11) received a dose of 30 mg/kg IV bolus followed by 6 mg/kg/hr IV infusion for 4 hours. Group 3 (n=9) received a dose of 10 mg/kg IV bolus followed by 2 mg/kg/hr IV infusion for 4 hours. Group 3 rats were also treated at 120 minutes, 180 minutes and 360 minutes post-occlusion. Group 4 (n=8) received a dose of 3 mg/kg IV bolus followed by […] IV infusion for 4 hours.
Two additional drug treated groups received 2-(3-sulfanylpropyl)pentanedioic acid. For each rat, the treatment was initiated at 120 minutes post middle cerebral artery occlusion (MCAO) by an IV bolus injection which was immediately followed by IV infusion for 4 hours at rate of 0.5 ml/hr. Group 5 received a dose of 30 mg/kg IV bolus followed by 6 mg/kg/hr IV infusion for 4 hours. Group 6 received a dose of 10 mg/kg IV bolus followed by 2 mg/kg/hr IV infusion.
Twenty two hours following the reperfusion, the rats were euthanized and their brains were removed. Seven coronal sections (2 mm thick) were taken and stained with 1% solution of 2,3,5-triphenyl-tetraxolium chloride (TTC) for 20 minutes and then fixed in 10% formalin. The anterior and posterior surface of the most rostral brain section and the posterior surface of each of the remaining 6 sections were imaged. The quantification of infarct size of each brain was obtained using a computer aided-digital imaging analysis system (LOATS). The brain regions completely lacking TTC-staining were characterized as representative of infarcted tissue. The total infarct volume for each rat was calculated by numeric integration of the respective sequential brain areas.
Male Sprague-Dawley rats (260-320 g) were used. They were individually housed and allowed free access to food and water. Two days prior to the experiment, they were given restricted food if necessary to maintain the body weight Each rat received two surgeries: femoral vein cannulation for IV infusion and MCAO. During surgeries, the rat was anesthetized with 1.5% halothane delivered in oxygen via an inhalation mask. The body temperature was monitored and regulated at normothermic level using a homeothermic heating system. First, a catheter was inserted into the left femoral vein. Thirty minutes later, the rat was reanesthetized for MCAO surgery. The MCAO was achieved using the endovascular suture method described by Long et al., Stroke, Vol. 20, pp. 84-91 (1989). Specifically, the right external carotid artery (ECA) was exposed, coagulated and transected. A 3-0 monofilament nylon suture with a blunted tip and a coat of 0.05% Poly-1-Lysine was introduced into the proximal stump of the ECA via an arteriotomy. It was advanced 22 mm from the carotid bifurcation until it lodged in the proximal region of the anterior cerebral artery, thereby occluding the origin of the MCA. The rats were allowed to wake up; 2 hours later, the rats were reanesthetized for reperfusion, during which the nylon suture was retracted to the stump of the ECA allowing blood recirculation to the MCA.

With `O=C(O)CCC(CCCS)C(=O)O` (stereo not shown) [2-(3-sulfanylpropyl)pentanedioic acid] the “infarct size vs. vehicle treated rats” value was “significantly smaller infarct size”.

Same assay, conditions: TABLE IV(b); dose 10 mg/kg, 120 minutes post MCAO

With `O=C(O)CCC(CCCS)C(=O)O` (stereo not shown) [2-(3-sulfanylpropyl)pentanedioic acid] the “% Protect” value was 21%.

Same assay, conditions: TABLE IV(b); dose 30 mg/kg, 120 minutes post MCAO

In the case of `O=C(O)CCC(CCCS)C(=O)O` (stereo not shown) [2-(3-sulfanylpropyl)pentanedioic acid], the “% Protect” value is reported as 52%.

Tested on: not listed separately
Test: Example 14: each of the Examples and in vitro and in vivo assays described above
Conditions: each of their respective assays and Examples

With `CC(S)CC(CCC(=O)O)C(=O)O` (stereo not shown) [2-(2-sulfanylpropyl)pentanedioic acid] the “in vitro or in vivo activity” value was “exhibit in vitro or in vivo activity”.
In the case of `O=C(O)CCC(CCCS)C(=O)O` (stereo not shown) [2-(3-sulfanylpropyl)pentanedioic acid], the “in vitro or in vivo activity” value is reported as “exhibit in vitro or in vivo activity”.

Tested on: LNCaP cells
Test: not given
Conditions: as the concentration increased; cited from earlier work

In the case of `N[C@@H](Cn1oc(=O)[nH]c1=O)C(=O)O` [quisqualic acid, reference compound], the LNCaP cell proliferation is listed as “decreased significantly”.
